Experimental data from US9487489B2, “Halogen-substituted pyrazole derivatives as pest-control agents” (BAYER CROPSCIENCE AKTIENGESELLSCHAFT, priority 2013, dated 2016).

Assays:
[1] = system: larvae of the mustard beetle (Phaedon cochleariae); experiment: Phaedon cochleariae spray test (PHAECO); type: in vivo; settings: Chinese cabbage leaf discs, after 7 days
Summary of the method: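 Kill of mustard beetle larvae is read as % mortality 7 days after spraying. Spray liquid: active compound in acetone plus dimethylformamide, brought up with water holding 1000 ppm alkylaryl polyglycol ether emulsifier and diluted further in emulsifier-water.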

[2] = system: cattle ticks (Boophilus microplus) Parkhurst strain, SP-resistant; experiment: Boophilus microplus dip test (BOOPMI Dip); type: in vivo; settings: application rate 100 ppm, assessed after 7 days
Procedure: B. Boophilus microplus-dip Test (BOOPMI Dip)
Test animals: cattle ticks (Boophilus microplus) Parkhurst strain, SP-resistant
Solvent: dimethyl sulphoxide
10 mg of active compound are dissolved in 0.5 ml of dimethyl sulphoxide. For the purpose of preparing a suitable formulation, the active compound solution is diluted with water to the concentration desired in each case.
This active compound preparation is pipetted into tubes. 8-10 adult engorged female cattle ticks (Boophilus microplus) are transferred into a further tube with holes. The tube is immersed into the active compound formulation, and all ticks are completely wetted. After the liquid has run out, the ticks are transferred on filter discs into plastic dishes and stored in a climate-controlled room.
The activity is assessed after 7 days by laying of fertile eggs. Eggs whose fertility is not visible from the outside are stored in a climate-controlled cabinet until the larvae hatch after about 42 days. An efficacy of 100% means that none of the ticks has laid any fertile eggs; 0% means that all eggs are fertile.

[3] = logP determination by HPLC on a reversed-phase column (C18), EEC Directive 79/831 Annex V.A8; type: physicochemical; settings: HPLC on reversed-phase column (C18), acetonitrile/water with formic acid, EEC Directive 79/831 Annex V.A8
Summary of the method: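 Per EEC 79/831 Annex V.A8, values derive from HPLC retention at 2.0 ml/min and 55° C on a 50*4.6 C18 column. The 10→95% acetonitrile gradient (0.1%/0.09% formic acid) lasted 4.25 min plus a 1.25 min hold; mass detection was by MSD.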

[4] = system: engorged adult female cattle ticks (Boophilus microplus); experiment: Boophilus microplus injection test (BOOPMI Inj); type: in vivo; settings: application rate 20 μg/animal; injection into abdomen; assessed after 7 days
Summary of the method: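 Efficacy is read at 7 days as fertile egg laying (100% = no fertile eggs laid; 0% = all eggs fertile), with eggs of unclear fertility stored until larvae hatch at about 42 days. Five engorged adult females per dose each receive an abdominal injection of 1 μl compound dissolved in DMSO.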

[5] = system: adult dog ticks (Rhipicephalus sanguineus); experiment: Rhipicephalus sanguineus in vitro contact test with adult brown dog ticks (T2); settings: after 48 h
Summary of the method: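 Acetone solutions coated onto test tube walls and floor, giving 5 μg/cm^2 at 900 ppm. Five to ten adult ticks held per tube in the dark at room temperature for 48 h, then heated at 45-50° C for up to 5 min; efficacy is the percentage of dead or moribund ticks unable to climb away.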

[6] = system: L1 larvae of the Australian sheep blowfly (Lucilia cuprina); experiment: Lucilia cuprina test (LUCICU); type: in vivo; settings: application rate 100 ppm; after 2 days
Summary of the method: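 Percent mortality read at 2 days; 100% = all larvae killed, 0% = none. Test compound, predissolved in DMSO and water-diluted to the wanted level, was mixed into minced horsemeat holding roughly 20 first-instar larvae.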

[7] = system: adult cat fleas (Ctenocephalides felis); experiment: Ctenocephalides felis oral test (CTECFE); type: in vivo; settings: application rate 100 ppm in citrated cattle blood; after 2 days
Summary of the method: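 Mortality read at 2 days as percent of fleas killed. Compound predissolved in DMSO, diluted into citrated cattle blood and offered to roughly 20 unfed adult C. felis via parafilm membrane feeder.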

[8] = system: adult houseflies (Musca domestica); experiment: Musca domestica test (MUSCDO); type: in vivo; settings: application rate 100 ppm; after 2 days
Summary of the method: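 Groups of 10 adult Musca domestica exposed to a sugar-soaked sponge treated with the water-diluted DMSO preparation of compound at the chosen concentration. Percent kill read at day 2, where 0% means no flies killed and 100% all killed.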

[9] = system: adult cat fleas (Ctenocephalides felis); experiment: Ctenocephalides felis in vitro contact test with adult cat fleas (T1); settings: after 48 h
Summary of the method: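 Adult cat fleas (Ctenocephalides felis), 5-10 per tube, were exposed to the inner surface of 25 ml test tubes coated with compound in acetone. Tubes were incubated lying flat under ambient conditions. Efficacy was then read by standing tubes upright and knocking the fleas to the floor. Fleas that stayed motionless or moved uncoordinatedly counted as dead or moribund, where 100% means all fleas dead or moribund and 0% means none harmed.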

[10] = system: greenhouse red spider mite (Tetranychus urticae); experiment: Tetranychus urticae spray test, OP-resistant (TETRUR); type: in vivo; settings: bean leaf discs, after 6 days
Summary of the method: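 Percent kill, scored 6 days post-spray (0% = none dead, 100% = all dead), on Phaseolus vulgaris leaf discs infested with every life stage of the OP-resistant spider mite. Compound dissolved in acetone plus DMF, diluted to test concentration with emulsifier-containing water (1000 ppm).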

[11] = system: green peach aphid (Myzus persicae); experiment: Myzus persicae spray test (MYZUPE); type: in vivo; settings: application rate 100 g/ha; Chinese cabbage leaf discs; after 6 days
Procedure: G. Myzus persicae-spray Test (MYZUPE)
Solvents: 78 parts by weight of acetone
• 1.5 parts by weight of dimethylformamide Emulsifier: alkylaryl polyglycol ether
To produce a suitable preparation of active compound, 1 part by weight of active compound is dissolved using the stated parts by weight of solvent and made up with water comprising an emulsifier concentration of 1000 ppm until the desired concentration is reached. To produce further test concentrations, the preparation is diluted with emulsifier-containing water.
Discs of Chinese cabbage leaves (Brassica pekinensis) infested by all stages of the green peach aphid (Myzus persicae) are sprayed with an active compound preparation of the desired concentration.
After 6 days, the efficacy in % is determined 100% here means that all of the aphids have been killed; 0% means that no aphids have been killed.

[12] = system: caterpillars of the armyworm (Spodoptera frugiperda); experiment: Spodoptera frugiperda spray test (SPODFR); type: in vivo; settings: maize leaf discs, after 7 days
Summary of the method: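 Percent kill read at day 7 on caterpillar-infested maize leaf discs. Discs were first sprayed with aqueous emulsifier-containing (1000 ppm) preparations made from acetone/dimethylformamide solutions, and dried. Scale: 0% none dead, 100% all dead.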

Compound: Cc1ccc(-c2cnn(-c3c(C(F)(F)F)c(C(F)(F)C(F)(F)F)nn3C)c2)cc1C(=O)NC1CC1 [Ic-130]
- efficacy in % ([1]; application rate 100 g/ha): 100%
- efficacy (laying of fertile eggs) [2]: 100%
- logP [3]: 3.76

Compound: Cc1coc(NC(=O)c2cc(-c3cnn(-c4c(C(F)(F)F)c(C(F)(F)C(F)(F)F)nn4C)c3)ccc2Cl)n1 [Ic-160]
- efficacy (laying of fertile eggs) [4]: 100%
- efficacy (dead or moribund ticks) ([5]; application rate 1 μg/cm^2): 100%
- efficacy (dead or moribund ticks) ([5]; application rate 5 μg/cm^2): 100%
- efficacy (kill in %) [6]: 100%
- efficacy (kill in %) [7]: 100%
- efficacy (laying of fertile eggs) [2]: 100%
- efficacy (kill in %) [8]: 100%
- efficacy (dead or moribund fleas) ([9]; application rate 1 μg/cm^2): 100%
- efficacy (dead or moribund fleas) ([9]; application rate 5 μg/cm^2): 100%

Compound: Cn1nc(C(F)(F)C(F)(F)F)c(C(F)(F)F)c1-n1cc(-c2ccc(Cl)c(C(=O)NCC=CCl)c2)cn1 [Ic-112]
- efficacy in % ([10]; application rate 100 g/ha): 100%
- efficacy in % [11]: 100%
- efficacy (dead or moribund ticks) ([5]; application rate 1 μg/cm^2): 100%
- efficacy (dead or moribund ticks) ([5]; application rate 5 μg/cm^2): 100%
- efficacy in % ([12]; application rate 100 g/ha): 100%
- efficacy (laying of fertile eggs) [2]: 100%
- efficacy (dead or moribund fleas) ([9]; application rate 1 μg/cm^2): 100%
- efficacy (dead or moribund fleas) ([9]; application rate 5 μg/cm^2): 100%
- logP [3]: 4.13

Compound: Cn1nc(C(F)(F)C(F)(F)F)c(C(F)(F)F)c1-n1cc(-c2ccc(F)c(C(=O)NC3(C#N)CC3)c2F)cn1 [Ic-175]
- efficacy (laying of fertile eggs) [4]: 100%
- efficacy in % ([10]; application rate 500 g/ha): 100%
- efficacy in % ([1]; application rate 500 g/ha): 100%
- efficacy (kill in %) [6]: 100%
- efficacy in % ([12]; application rate 500 g/ha): 100%
- efficacy (kill in %) [7]: 100%
- efficacy (laying of fertile eggs) [2]: 90%
- efficacy (kill in %) [8]: 100%
- efficacy (dead or moribund fleas) ([9]; application rate 1 μg/cm^2): 100%
- efficacy (dead or moribund fleas) ([9]; application rate 5 μg/cm^2): 100%

Compound: CC(C)NC(=O)c1cc(-c2cnn(-c3c(C(F)(F)F)c(C(F)(F)C(F)(F)F)nn3C)c2)ccc1Cl [Ic-113]
- efficacy in % ([10]; application rate 100 g/ha): 100%
- efficacy in % [11]: 90%
- efficacy (dead or moribund ticks) ([5]; application rate 1 μg/cm^2): 80%
- efficacy (dead or moribund ticks) ([5]; application rate 5 μg/cm^2): 100%
- efficacy in % ([1]; application rate 100 g/ha): 100%
- efficacy in % ([12]; application rate 100 g/ha): 100%
- efficacy (laying of fertile eggs) [2]: 100%
- efficacy (dead or moribund fleas) ([9]; application rate 1 μg/cm^2): 100%
- efficacy (dead or moribund fleas) ([9]; application rate 5 μg/cm^2): 100%
- logP [3]: 4.01

Compound: Cc1nnc(NC(=O)c2cc(-c3cnn(-c4c(C(F)(F)F)c(C(F)(F)C(F)(F)F)nn4C)c3)ccc2Cl)o1 [Ic-158]
- efficacy (laying of fertile eggs) [4]: 100%
- efficacy (kill in %) [6]: 100%
- efficacy (kill in %) [7]: 100%
- efficacy (laying of fertile eggs) [2]: 100%
- efficacy (kill in %) [8]: 90%
- efficacy (dead or moribund fleas) ([9]; application rate 1 μg/cm^2): 100%
- efficacy (dead or moribund fleas) ([9]; application rate 5 μg/cm^2): 100%
